Measurements reported in the NIST ThermoML archive (doi:10.1021/je400683g).
Numbers after ± are expanded uncertainties.

What was measured:
[1] = for surface tension liquid-gas: Maximal bubble pressure; for vapor or sublimation pressure: Closed cell (Static) method
[2] = refractive index (Na D-line) (dimensionless); details: 298.15 K; 101.33 kPa; Liquid; Standard Abbe refractometry
[3] = xn = mol fraction of the nth substance listed; details: 298.15 K, Maximal bubble pressure

Cc1ccc(C)o1 [2,5-dimethylfuran]
Details | surface tension liquid-gas [mN/m]
[1], 298.15 K | 25.1 ± 0.27

Details | mass density [kg/m3]
[1], 298.15 K, 101.33 kPa, Liquid, Vibrating tube method | 896.54 ± 0.09

[1], Liquid
Details | vapor or sublimation pressure [kPa]
345.2 K | 50 ± 0.25
357.18 K | 75 ± 0.41
364.36 K | 94 ± 0.56
366.83 K | 101.33 ± 0.6

Details | refractive index
[2] | 1.44012 ± 0.00032

Cc1ccc(C)o1 [2,5-dimethylfuran] + CCO
[3]
Details | surface tension liquid-gas [mN/m]
x2 = 0 | 25.1 ± 0.27
x2 = 0.049 | 24.96 ± 0.27
x2 = 0.09 | 24.89 ± 0.27
x2 = 0.176 | 24.68 ± 0.27
x2 = 0.29 | 24.38 ± 0.27
x2 = 0.386 | 24.22 ± 0.27
x2 = 0.492 | 23.93 ± 0.27
x2 = 0.594 | 23.73 ± 0.26
x2 = 0.701 | 23.4 ± 0.26
x2 = 0.804 | 23.02 ± 0.26
x2 = 0.915 | 22.73 ± 0.26
x2 = 0.963 | 22.5 ± 0.26

CCO [ethanol]
Details | surface tension liquid-gas [mN/m]
[1], 298.15 K | 22.1 ± 0.26

[1], Liquid
Details | vapor or sublimation pressure [kPa]
323.51 K | 30.01 ± 0.08
326.79 K | 35.01 ± 0.09
329.68 K | 40.01 ± 0.1
332.27 K | 45.01 ± 0.1
334.57 K | 50 ± 0.2
334.63 K | 50.01 ± 0.11
336.8 K | 55.01 ± 0.11
338.81 K | 60.01 ± 0.12
340.68 K | 65.01 ± 0.13
342.43 K | 70.01 ± 0.14
344.02 K | 75 ± 0.34
344.09 K | 75.01 ± 0.14
345.64 K | 80.01 ± 0.15
347.13 K | 85.01 ± 0.16
348.54 K | 90.01 ± 0.16
349.56 K | 94 ± 0.42
349.89 K | 95.01 ± 0.17
351.51 K | 101.33 ± 0.2
351.68 K | 102.01 ± 0.18

Details | refractive index
[2] | 1.36068 ± 0.00031

CCO [ethanol] + Cc1ccc(C)o1
Details | surface tension liquid-gas [mN/m]
[3], x1 = 1 | 22.1 ± 0.26
